Results on 20 molecules are retold here after ChEMBL document CHEMBL1833863, “Synthesis, biological evaluation and molecular docking studies of 1,3,4-thiadiazole derivatives containing 1,4-benzodioxan as potential antitumor agents” (Bioorg Med Chem Lett, 2011).

For orientation: EC50 means the concentration at which the effect is half-maximal.

Converted amounts (≈) assume the structure as drawn. The source made the active and inactive calls. The calls are words filed in the database; no cut-off is given here.

Experiment [1] deals with HepG2. Description: Antiproliferative activity against human HepG2 cells after 48 hrs by MTT assay. Format: functional, cell-based. As to conditions: HepG2, 48 h.
The subject of experiment [2] is HeLa. The experiment can be described thus: Antiproliferative activity against human HeLa cells after 48 hrs by MTT assay. In kind it is functional, cell-based. (Formazan colour is commonly taken as a measure of viable cells.)
Experiment [3] is described as follows: Antiproliferative activity against human SW1116 cells after 48 hrs by MTT assay. In kind it is functional, cell-based. Conditions: SW 1116, 48 h.
For experiment [4], the system named is BGC-823. The experiment can be described thus: Antiproliferative activity against human BGC823 cells after 48 hrs by MTT assay. Format: functional, cell-based. As to conditions: BGC-823, 48 h.
For experiment [5], the target named is T1, Focal adhesion kinase 1 (Homo sapiens, UniProt Q05397). Description: Inhibition of human recombinant full-length FAK assessed as remaining ATP after 4 hrs by Kinase-Glo-luminescence assay.
Target sequence in this assay (Q05397 whole entry): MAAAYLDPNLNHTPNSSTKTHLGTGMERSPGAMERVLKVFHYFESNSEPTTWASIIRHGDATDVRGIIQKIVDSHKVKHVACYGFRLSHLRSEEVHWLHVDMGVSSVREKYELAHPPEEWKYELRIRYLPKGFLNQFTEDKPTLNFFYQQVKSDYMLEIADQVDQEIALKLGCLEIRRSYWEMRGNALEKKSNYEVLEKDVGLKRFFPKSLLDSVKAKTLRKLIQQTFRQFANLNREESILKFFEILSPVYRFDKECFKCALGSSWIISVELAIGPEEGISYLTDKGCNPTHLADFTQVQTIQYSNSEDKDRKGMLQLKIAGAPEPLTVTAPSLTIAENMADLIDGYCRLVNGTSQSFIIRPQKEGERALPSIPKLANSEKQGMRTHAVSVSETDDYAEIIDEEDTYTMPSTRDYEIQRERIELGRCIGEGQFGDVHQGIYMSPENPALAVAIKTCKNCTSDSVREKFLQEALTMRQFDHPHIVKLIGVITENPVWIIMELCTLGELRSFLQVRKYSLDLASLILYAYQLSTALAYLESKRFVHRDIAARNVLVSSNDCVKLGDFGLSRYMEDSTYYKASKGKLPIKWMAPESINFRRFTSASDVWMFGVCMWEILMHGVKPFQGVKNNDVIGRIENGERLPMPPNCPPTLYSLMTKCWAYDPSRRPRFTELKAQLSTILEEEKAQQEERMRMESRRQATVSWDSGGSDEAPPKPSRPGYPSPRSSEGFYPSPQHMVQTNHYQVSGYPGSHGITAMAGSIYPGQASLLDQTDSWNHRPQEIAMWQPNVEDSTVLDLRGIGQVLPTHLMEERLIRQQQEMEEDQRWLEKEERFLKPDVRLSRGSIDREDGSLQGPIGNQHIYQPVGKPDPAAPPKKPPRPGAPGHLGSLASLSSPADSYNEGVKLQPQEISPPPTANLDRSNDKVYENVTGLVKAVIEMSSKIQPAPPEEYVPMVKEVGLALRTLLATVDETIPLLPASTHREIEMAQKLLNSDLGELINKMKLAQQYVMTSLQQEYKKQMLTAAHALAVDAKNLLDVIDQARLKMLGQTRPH
In experiment [6] the test system is HepG2. Description: Induction of apoptosis in human HepG2 cells assessed as viable cells at 0.5 uM after 24 hrs using Annexin V-FITC and propidium iodide staining by flow cytometry (reference value: 96.26 %). Format: functional. As to conditions: HepG2, 24 h, read-out: Activity. A general note: Flow cytometry measures light scatter and fluorescence of single cells or particles in a stream.

Experiment [7] concerns HepG2. The experiment can be described thus: Induction of apoptosis in human HepG2 cells assessed as early apoptotic cells at 0.5 uM after 24 hrs using Annexin V-FITC and propidium iodide staining by flow cytometry (reference value: 0.02 %). Format: functional.
Experiment [8] deals with HepG2. The experiment can be described thus: Induction of apoptosis in human HepG2 cells assessed as late apoptotic cells at 0.5 uM after 24 hrs using Annexin V-FITC and propidium iodide staining by flow cytometry (reference value: 0.90 %). In kind it is functional.
The subject of experiment [9] is HepG2. The experiment can be described thus: Induction of apoptosis in human HepG2 cells assessed as necrotic cells at 0.5 uM after 24 hrs using Annexin V-FITC and propidium iodide staining by flow cytometry (reference value: 2.82 %). Format: functional.
For experiment [10], the system named is HepG2. The experiment can be described thus: Induction of apoptosis in human HepG2 cells assessed as viable cells at 1 uM after 24 hrs using Annexin V-FITC and propidium iodide staining by flow cytometry (reference value: 96.26 %). Format: functional. As to conditions: HepG2, 24 h, read-out: Activity.
In experiment [11] the test system is HepG2. Description: Induction of apoptosis in human HepG2 cells assessed as early apoptotic cells at 1 uM after 24 hrs using Annexin V-FITC and propidium iodide staining by flow cytometry (reference value: 0.02 %). Format: functional.
The test system of experiment [12] is HepG2. The experiment can be described thus: Induction of apoptosis in human HepG2 cells assessed as late apoptotic cells at 1 uM after 24 hrs using Annexin V-FITC and propidium iodide staining by flow cytometry (reference value: 0.90 %). Format: functional.
Experiment [13] has as its system HepG2. Description: Induction of apoptosis in human HepG2 cells assessed as necrotic cells at 1 uM after 24 hrs using Annexin V-FITC and propidium iodide staining by flow cytometry (reference value: 2.82 %). Format: functional.
In experiment [14] the test system is HepG2. The experiment can be described thus: Induction of apoptosis in human HepG2 cells assessed as viable cells at 2 uM after 24 hrs using Annexin V-FITC and propidium iodide staining by flow cytometry (reference value: 96.26 %). Conditions: HepG2, 24 h, read-out: Activity. Format: functional.
Experiment [15] has as its system HepG2. Description: Induction of apoptosis in human HepG2 cells assessed as early apoptotic cells at 2 uM after 24 hrs using Annexin V-FITC and propidium iodide staining by flow cytometry (reference value: 0.02 %). In kind it is functional.
Experiment [16] relates to HepG2. Description: Induction of apoptosis in human HepG2 cells assessed as late apoptotic cells at 2 uM after 24 hrs using Annexin V-FITC and propidium iodide staining by flow cytometry (reference value: 0.90 %). Format: functional.
Experiment [17] concerns HepG2. The experiment can be described thus: Induction of apoptosis in human HepG2 cells assessed as necrotic cells at 2 uM after 24 hrs using Annexin V-FITC and propidium iodide staining by flow cytometry (reference value: 2.82 %). In kind it is functional.
Experiment [18] deals with HepG2. Description: Induction of apoptosis in human HepG2 cells assessed as viable cells at 4 uM after 24 hrs using Annexin V-FITC and propidium iodide staining by flow cytometry (reference value: 96.26 %). Format: functional. As to conditions: HepG2, 24 h, read-out: Activity.
Experiment [19] relates to HepG2. The experiment can be described thus: Induction of apoptosis in human HepG2 cells assessed as early apoptotic cells at 4 uM after 24 hrs using Annexin V-FITC and propidium iodide staining by flow cytometry (reference value: 0.02 %). Format: functional.
For experiment [20], the system named is HepG2. The experiment can be described thus: Induction of apoptosis in human HepG2 cells assessed as late apoptotic cells at 4 uM after 24 hrs using Annexin V-FITC and propidium iodide staining by flow cytometry (reference value: 0.90 %). In kind it is functional.
The subject of experiment [21] is HepG2. Description: Induction of apoptosis in human HepG2 cells assessed as necrotic cells at 4 uM after 24 hrs using Annexin V-FITC and propidium iodide staining by flow cytometry (reference value: 2.82 %). Format: functional.
Experiment [22] deals with HepG2. The experiment can be described thus: Induction of apoptosis in human HepG2 cells assessed as cleaved caspase 3 level at 0.74 to 20 […] uM by Western blotting. In kind it is functional, cell-based.
Experiment [23] relates to HepG2. Description: Induction of apoptosis in human HepG2 cells assessed as cleaved PARP level at 0.74 to 20 […] uM by Western blotting. In kind it is functional, cell-based.
Experiment [24] concerns the target T1, Focal adhesion kinase 1. The experiment can be described thus: Inhibition of FAK in human HepG2 cells at 2.22 to 20 uM by Western blot analysis. Format: cell-based.
Target sequence in this assay (Q05397 2-1052 limits assumed): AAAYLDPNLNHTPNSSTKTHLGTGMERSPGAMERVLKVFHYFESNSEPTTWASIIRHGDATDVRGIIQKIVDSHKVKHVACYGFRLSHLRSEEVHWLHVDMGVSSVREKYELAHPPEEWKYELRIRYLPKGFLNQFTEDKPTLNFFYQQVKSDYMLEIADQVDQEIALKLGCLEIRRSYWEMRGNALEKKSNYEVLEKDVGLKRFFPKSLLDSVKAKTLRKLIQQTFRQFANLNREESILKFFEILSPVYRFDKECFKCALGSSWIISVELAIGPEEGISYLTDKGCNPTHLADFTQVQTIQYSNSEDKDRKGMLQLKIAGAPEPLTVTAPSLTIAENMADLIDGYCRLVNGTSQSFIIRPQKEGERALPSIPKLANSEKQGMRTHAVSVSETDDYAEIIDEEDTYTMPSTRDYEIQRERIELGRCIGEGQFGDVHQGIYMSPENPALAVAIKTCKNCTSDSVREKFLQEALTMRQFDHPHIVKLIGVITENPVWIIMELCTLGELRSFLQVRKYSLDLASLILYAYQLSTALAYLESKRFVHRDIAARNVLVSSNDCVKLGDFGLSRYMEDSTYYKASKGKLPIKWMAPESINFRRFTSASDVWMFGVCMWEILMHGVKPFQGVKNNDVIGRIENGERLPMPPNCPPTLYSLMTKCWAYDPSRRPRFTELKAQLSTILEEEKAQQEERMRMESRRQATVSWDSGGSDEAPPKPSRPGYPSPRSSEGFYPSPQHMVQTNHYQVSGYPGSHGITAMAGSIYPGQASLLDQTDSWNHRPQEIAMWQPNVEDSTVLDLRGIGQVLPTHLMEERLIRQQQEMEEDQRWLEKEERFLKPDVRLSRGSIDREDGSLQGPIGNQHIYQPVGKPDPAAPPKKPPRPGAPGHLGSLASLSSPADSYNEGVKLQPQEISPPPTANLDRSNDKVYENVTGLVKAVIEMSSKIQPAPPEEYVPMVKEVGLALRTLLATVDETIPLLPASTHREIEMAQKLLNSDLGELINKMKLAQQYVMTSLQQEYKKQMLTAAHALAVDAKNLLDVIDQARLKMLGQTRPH

Turning to `O=C(Cc1ccc(Cl)cc1)Nc1nnc(-c2ccc3c(c2)OCCO3)s1`, the concentration for a half-maximal effect (EC50) in [1] was 13.8 µg/mL (≈ 35.5 µM); in experiment [2], 26.8 µg/mL (≈ 69 µM); in [3], 40.7 µg/mL (≈ 105 µM); in [4], greater than 100 µg/mL; in experiment [5], 31.3 µM.
Regarding `CCOc1ccc(CC(=O)Nc2nnc(-c3ccc4c(c3)OCCO4)s2)cc1OCC`, the EC50 in experiment [1], in [2], in [3] and in experiment [4] was greater than 100 µg/mL each time.
On to `O=C(/C=C/c1ccccc1)Nc1nnc(-c2ccc3c(c2)OCCO3)s1`, for which the EC50 is 10.3 µg/mL (≈ 28.1 µM) in experiment [1]; greater than 100 µg/mL in experiment [2]; 60.2 µg/mL (≈ 165 µM) in experiment [3]; 45.4 µg/mL (≈ 124 µM) in experiment [4]; 29.5 µM in experiment [5]. In addition, the viability at 0.5 µM in experiment [6] stood at 58.3%. The Activity is reported as 0.8% in experiment [7]; 8% in experiment [8]; 32.8% in experiment [9]; 3.49% in experiment [11]; 13.17% in [12]; 24.49% in experiment [13]. Moreover, the Activity is reported as 4.03% in experiment [15]; 18% in [16]; 27.21% in [17]; 11% in [19]; 23.25% in experiment [20]; 26.23% in experiment [21]. Moreover, in [10], the viability at 1 µM was found to be 58.9%. In [14], the viability at 2 µM came to 50.8%. Moreover, the viability at 4 µM in experiment [18] turned out to be 39.5%. The outcome in [22] and in experiment [23] was Active. Further, the inhibition entry in [24] was “Active”.
With `O=C(Nc1nnc(-c2ccc3c(c2)OCCO3)s1)c1ccccc1`, the EC50 in [1] is 34.8 µg/mL (≈ 102 µM); in experiment [2], greater than 100 µg/mL; in experiment [3], 67.6 µg/mL (≈ 199 µM); in experiment [4] it was 46.1 µg/mL (≈ 136 µM); in [5] it was 62 µM.
For the molecule `Cc1ccc(C(=O)Nc2nnc(-c3ccc4c(c3)OCCO4)s2)cn1`, the EC50 in [1], in experiment [2], in experiment [3] and in experiment [4] was greater than 100 µg/mL each time.
Regarding `O=C(Nc1nnc(-c2ccc3c(c2)OCCO3)s1)c1ccc(Cl)nc1`, the EC50 in [1] was 15.3 µg/mL (≈ 41 µM); in experiment [2] it was greater than 100 µg/mL; in experiment [3], 30.3 µg/mL (≈ 81 µM); in experiment [4], greater than 100 µg/mL; in experiment [5], 36.5 µM.
In the case of `O=c1[nH]cc(F)c(=O)[nH]1` [FLUOROURACIL], the EC50 in [1] turned out to be 23.3 µg/mL (≈ 179 µM); in experiment [2], 31 µg/mL (≈ 238 µM); in experiment [3] it was 28.5 µg/mL (≈ 219 µM); in [4] it was 17.4 µg/mL (≈ 134 µM).
As to `Nc1ccc(C(=O)Nc2nnc(-c3ccc4c(c3)OCCO4)s2)cc1`, the EC50 was greater than 100 µg/mL in experiment [1], greater than 100 µg/mL in [2], 41.2 µg/mL (≈ 116 µM) in [3] and greater than 100 µg/mL in experiment [4].
In the case of `O=C(Cc1ccc(F)cc1)Nc1nnc(-c2ccc3c(c2)OCCO3)s1`, the EC50 in experiment [1] is 23.8 µg/mL (≈ 64 µM); in experiment [2], greater than 100 µg/mL; in [3], greater than 100 µg/mL; in [4], greater than 100 µg/mL; in experiment [5] it was 51.2 µM.
With `O=C(Cc1ccc(Br)cc1)Nc1nnc(-c2ccc3c(c2)OCCO3)s1`, the EC50 in experiment [1] is 42.1 µg/mL (≈ 97.5 µM); in [2], 51.2 µg/mL (≈ 118 µM); in experiment [3], greater than 100 µg/mL; in experiment [4], greater than 100 µg/mL; in [5], 54.9 µM.
On to `O=C(Cc1ccccc1)Nc1nnc(-c2ccc3c(c2)OCCO3)s1`, for which the EC50 in experiment [1] is 18.3 µg/mL (≈ 51.7 µM); in experiment [2], 49.9 µg/mL (≈ 141 µM); in [3] it was 51.3 µg/mL (≈ 145 µM); in [4], 27.4 µg/mL (≈ 77.5 µM); in experiment [5], 50.2 µM.
Taken in the same sequence, the figures for `O=C(Cc1cccc(Cl)c1)Nc1nnc(-c2ccc3c(c2)OCCO3)s1` were 18.4 µg/mL (≈ 47.5 µM), 34.9 µg/mL (≈ 89.9 µM), 47.6 µg/mL (≈ 123 µM), greater than 100 µg/mL and 46.7 µM.
Turning to `O=C(Nc1nnc(-c2ccc3c(c2)OCCO3)s1)c1ccccn1`, the EC50 in experiment [1] was greater than 100 µg/mL; in experiment [2], greater than 100 µg/mL; in [3] it was greater than 100 µg/mL; in experiment [4], 35.8 µg/mL (≈ 105 µM).
Consider `COc1cccc(CC(=O)Nc2nnc(-c3ccc4c(c3)OCCO4)s2)c1`, for which the EC50 in experiment [1], in experiment [2], in experiment [3] and in experiment [4] was greater than 100 µg/mL in each case.
In the case of `O=C(Cc1cccc(Br)c1)Nc1nnc(-c2ccc3c(c2)OCCO3)s1`, the EC50 in experiment [1] was 45.8 µg/mL (≈ 106 µM); in experiment [2], 54.2 µg/mL (≈ 125 µM); in experiment [3], greater than 100 µg/mL; in [4] it was greater than 100 µg/mL; in [5] it was 60.5 µM.
On to `Cc1ccccc1C(=O)Nc1nnc(-c2ccc3c(c2)OCCO3)s1`, for which the EC50 in experiment [1], in experiment [2], in experiment [3] and in [4] was greater than 100 µg/mL in each case.
`CC(=O)c1ccc(CC(=O)Nc2nnc(-c3ccc4c(c3)OCCO4)s2)cc1`: the 50% effective concentration (EC50) in experiment [1], in experiment [2], in experiment [3] and in experiment [4] was greater than 100 µg/mL throughout.
In the case of `O=C(Cc1ccc2ccccc2c1)Nc1nnc(-c2ccc3c(c2)OCCO3)s1`, the EC50 in [1] is greater than 100 µg/mL; in [2] it was greater than 100 µg/mL; in experiment [3], 43.6 µg/mL (≈ 108 µM); in experiment [4], 67.9 µg/mL (≈ 168 µM).
As to `O=C(Nc1nnc(-c2ccc3c(c2)OCCO3)s1)c1ccncc1`, the EC50 is greater than 100 µg/mL in [1], greater than 100 µg/mL in [2], greater than 100 µg/mL in [3] and 41 µg/mL (≈ 121 µM) in experiment [4].
With `O=C(CCc1ccccc1)Nc1nnc(-c2ccc3c(c2)OCCO3)s1`, the EC50 is 15.3 µg/mL (≈ 41.7 µM) in experiment [1]; 32.5 µg/mL (≈ 88.3 µM) in [2]; 16.2 µg/mL (≈ 44 µM) in [3]; 14.2 µg/mL (≈ 38.7 µM) in experiment [4]; 38 µM in [5].
